Patent publication US20200188465A1, “TREATMENT OF CYTOKINE RELEASE SYNDROME BY DECREASING LEVEL OF PROINFLAMMATORY CYTOKINE” (Gwo Xi Stem Cell Applied Technology Co., Ltd., priority 2018, published 2020)
Entries after “also recorded” stand apart in the source; their conditions may differ. Where two headings read alike, the source gives them in different places.

Columns and labels:
Assay type in all cases: cell-based, Human
IFN-γ [1] = test: IFN-γ release (ELISA) of Jurkat T cells pre-stimulated with PMA plus ionomycin, then drug (Embodiment 1); details: for IFN-γ/cell viability: Jurkat pretreated PMA + ionomycin; for IFN-γ content in the cells is reduced at least: summary, concentration not given
Experimental: (§1) Human Jurkat T cell line (Clone E6-1, ATCC TIB 152) and THP-1 were used in the embodiments and purchased from Bioresource Collection and Research Centre (BCRC), Taiwan. The cells were maintained in RPMI 1640 medium (Gibco, Carlsbad, Calif., USA) with 2 mM L-glutamine adjusted to contain 1.5 g/L sodium bicarbonate, 4.5 g/L glucose, 10 mM HEPES, 1.0 mM sodium pyruvate, 1% (v/v) penicillin-streptomycin (HyClone, Logan, Utah), and 10% (v/v) fetal bovine serum (FBS; HyClone). The cells were kept in the incubator with 5% CO2 at 37° C. The passages were performed when the cell density didn't allow the cell concentration to exceed 3×10^6 cells/mL.
(§2) Jurkat cells were seeded in 48-well culture plates at a density of 5.0×10^5 cells/mL in culture medium. To promote Interferon gamma (IFN-γ; IFNG) production, the cells were stimulated with or without the combination of PMA and Ionomycin in culture medium. THP-1 cells were treated with or without the LPS that promoted IL6 production.
(§3) The culture supernatants were harvested by centrifugation and stored at −20° C. for cytokine analysis. The concentration of IFN-γ and IL6 were measured by ELISA kit (Invitrogen, Carlsbad, Calif., USA) according to the manufacturer's instructions.
(§4) After 6 and 24 hours, the supernatants were collected for cell viability analysis and cytokine analysis. The concentration of cytokine was measured by Human IFN-γ ELISA kit (Invitrogen) according to the manufacturers.

Jurkat T cells = test: Cell viability (MTS) of Jurkat T cells pre-stimulated with PMA plus ionomycin, then drug (Embodiment 1)
Experimental: as §1, §2
(§5) The cell viability was determined using MTS reagent (Promega). Assays were performed by adding MTS to each well for 3 hours at 37° C. with 5% CO2. The amount of formazan converted by living cells, and then recording absorbance at 490 nm with a 96-well plate reader.
as §4

THP-1 cells = test: Cell viability (MTS) of THP-1 cells pre-stimulated with LPS, then drug (Embodiment 2)
IL6 = IL6 release (ELISA) of THP-1 cells pre-stimulated with LPS, then drug (Embodiment 2); details: for IL6/cell viability: THP-1 pretreated LPS; for IL-6 content in the cells is reduced at least: summary, concentration not given
Experimental: HyClone). […] The passages were performed when the cell density didn't allow the cell concentration to exceed 3×10^6 cells/mL. Jurkat cells were seeded in 48-well culture plates at a density of 5.0×10^5 cells/mL in culture medium. To promote Interferon gamma (IFN-γ; IFNG) production, the cells were stimulated with or without the combination of PMA and Ionomycin in culture medium. THP-1 cells were treated with or without the LPS that promoted IL6 production. The culture supernatants were harvested by centrifugation and stored at −20° C. for cytokine analysis. The concentration of IFN-γ and IL6 were measured by ELISA kit (Invitrogen, Carlsbad, Calif., USA) according to the manufacturer's instructions. […] The concentration of cytokine was measured by IL6 ELISA kit (Invitrogen) according to the manufacturers.

IFN-γ [2] = test: IFN-γ release (ELISA) of Jurkat cells co-treated with PMA, ionomycin and drug (Embodiments 3 and 4); details: for inhibition at 1 µM / inhibition at 5 µM: Homo sapiens, Jurkat, read-out: IFN-γ/cell viability lower than group 2 (PI alone); for inhibition at 1 µM: group 3 (THZ 1 μM); for inhibition at 5 µM: group 4 (THZ 5 μM); for effect on cytokine induction, in words: co-treatment with PMA + ionomycin
Experimental: as §1, §3
(§6) In the Embodiment, Jurkat cells were seeded in 48-well culture plates at a density of 5.0×10^5 cells/mL indifferent culture medium, and each of the culture medium contains PMA, ionomycin, and THZ in the proportions shown in Table 3 below.
(§7) After 24 and 48 hours, the supernatants were collected for cell viability analysis and cytokine analysis. The concentration of cytokine was measured by Human IFN-γ ELISA kit (Invitrogen) according to the manufacturers.
(§8) In the Embodiment, Jurkat cells were seeded in 48-well culture plates at a density of 5.0×10^5 cells/mL in different culture medium, and each of the culture medium contains PMA, ionomycin, and HH-F3 in the proportions shown in Table 4 below.
(§9) After 24, 30, and 48 hours, the supernatants were collected for cell viability analysis and cytokine analysis. The concentration of cytokine was measured by Human IFN-γ ELISA kit (Invitrogen) according to the manufacturers.

Jurkat cells = test: Cell viability (MTS) of Jurkat cells co-treated with PMA, ionomycin and drug (Embodiments 3 and 4)
Experimental: as §1, §5, §6, §7, §8, §9

[3] = drug 1 μM, 6 h, IFN-γ normalized with cell viability
[4] = drug 1 μM, 6 h, Jurkat pretreated PMA 0.01 μg/mL + ionomycin 1 μM 24 h
[5] = drug 1 μM, 24 h, Jurkat pretreated PMA + ionomycin
[6] = drug 5 μM, 6 h, Jurkat pretreated PMA + ionomycin
[7] = drug 5 μM, 24 h, Jurkat pretreated PMA + ionomycin
[8] = drug 10 μM, 6 h, Jurkat pretreated PMA + ionomycin
[9] = drug 10 μM, 24 h, Jurkat pretreated PMA + ionomycin
[10] = drug 1 μM, 6 h, THP-1 pretreated LPS 0.1 μg/mL 16 h
[11] = drug 1 μM, 24 h, THP-1 pretreated LPS
[12] = drug 5 μM, 6 h, THP-1 pretreated LPS
[13] = drug 5 μM, 24 h, THP-1 pretreated LPS
[14] = drug 10 μM, 6 h, THP-1 pretreated LPS
[15] = drug 10 μM, 24 h, THP-1 pretreated LPS
[16] = drug 1 μM, 6 h, IL6 normalized with cell viability
[17] = at 24 hours after administering
[18] = group 3, THZ 1 μM co-treated with PI, 48 hr
[19] = group 4, THZ 5 μM co-treated with PI, 24 hr
[20] = group 4, THZ 5 μM co-treated with PI, 48 hr

O=C(CCCCCCC(=O)Nc1ccccc1)NO [SAHA, Suberoylanilide hydroxamic acid]
IFN-γ/cell viability (IFN-γ [1]; [3]): 25.5 pg/mL
IFN-γ/cell viability (IFN-γ [1]; drug 1 μM, 24 h): 33.8 pg/mL
IFN-γ/cell viability (IFN-γ [1]; drug 5 μM, 6 h): 28.2 pg/mL
IFN-γ/cell viability (IFN-γ [1]; drug 5 μM, 24 h): 34.0 pg/mL
IFN-γ/cell viability (IFN-γ [1]; drug 10 μM, 6 h): 28.0 pg/mL
IFN-γ/cell viability (IFN-γ [1]; drug 10 μM, 24 h): 32.0 pg/mL
Cell Viability (%) (Jurkat T cells; [4]): 70 ± 9%
Cell Viability (%) (Jurkat T cells; [5]): 53 ± 5%
Cell Viability (%) (Jurkat T cells; [6]): 65 ± 7%
Cell Viability (%) (Jurkat T cells; [7]): 59 ± 2%
Cell Viability (%) (Jurkat T cells; [8]): 65 ± 2%
Cell Viability (%) (Jurkat T cells; [9]): 60 ± 6%

CN1CCN(CCCN2c3ccccc3Sc3ccc(C(F)(F)F)cc32)CC1 [TFP, Trifluoperazine]
IFN-γ/cell viability (IFN-γ [1]; [3]): 41.8 pg/mL
IFN-γ/cell viability (IFN-γ [1]; drug 1 μM, 24 h): 39.7 pg/mL
IFN-γ/cell viability (IFN-γ [1]; drug 5 μM, 6 h): 35.7 pg/mL
IFN-γ/cell viability (IFN-γ [1]; drug 5 μM, 24 h): 32.5 pg/mL
IFN-γ/cell viability (IFN-γ [1]; drug 10 μM, 6 h): 40.9 pg/mL
IFN-γ/cell viability (IFN-γ [1]; drug 10 μM, 24 h): 35.6 pg/mL
Cell Viability (%) (THP-1 cells; [10]): 63 ± 6%
Cell Viability (%) (THP-1 cells; [11]): 96 ± 9%
Cell Viability (%) (THP-1 cells; [12]): 75 ± 4%
Cell Viability (%) (THP-1 cells; [13]): 82 ± 9%
Cell Viability (%) (THP-1 cells; [14]): 71 ± 8%
Cell Viability (%) (THP-1 cells; [15]): 75 ± 8%
IL6/cell viability (IL6; [16]): 43.9 pg/mL
IL6/cell viability (IL6; drug 1 μM, 24 h): 42.8 pg/mL
IL6/cell viability (IL6; drug 5 μM, 6 h): 35.6 pg/mL
IL6/cell viability (IL6; drug 5 μM, 24 h): 33.9 pg/mL
IL6/cell viability (IL6; drug 10 μM, 6 h): 32.5 pg/mL
IL6/cell viability (IL6; drug 10 μM, 24 h): 38.4 pg/mL
Cell Viability (%) (Jurkat T cells; [4]): 91 ± 2%
Cell Viability (%) (Jurkat T cells; [5]): 72 ± 5%
Cell Viability (%) (Jurkat T cells; [6]): 88 ± 9%
Cell Viability (%) (Jurkat T cells; [7]): 70 ± 4%
Cell Viability (%) (Jurkat T cells; [8]): 86 ± 4%
Cell Viability (%) (Jurkat T cells; [9]): 72 ± 7%

CSc1ccc2c(c1)N(CCC1CCCCN1C)c1ccccc1S2 (stereo not drawn) [THZ, Thioridazine]
IFN-γ content in the cells reduced (IFN-γ [1]; 1 μM, after 6 hours, vs PMA + ionomycin alone): 18.6%
IFN-γ content in the cells reduced (IFN-γ [1]; 1 μM, after 24 hours): 28.2%
IFN-γ content in the cells reduced (IFN-γ [1]; 5 μM, after 6 hours): 23.7%
IFN-γ content in the cells reduced (IFN-γ [1]; 5 μM, after 24 hours): 57.7%
IFN-γ content in the cells reduced (IFN-γ [1]; 10 μM, after 6 hours): 36.2%
IFN-γ content in the cells reduced (IFN-γ [1]; 10 μM, after 24 hours): 52.2%
effect on IFN-γ content, in words (IFN-γ [1]; Jurkat, PMA + ionomycin, 6 hr and 24 hr): significantly decreased IFN-γ expression; also recorded: stronger effects to cells compared to TFP and SAHA
IFN-γ content in the cells is reduced at least (IFN-γ [1]; at 6 hours after administering): at least 18.6%
IFN-γ content in the cells is reduced at least (IFN-γ [1]; [17]): at least 28.2%
IFN-γ/cell viability (IFN-γ [1]; [3]): 38.4 pg/mL
IFN-γ/cell viability (IFN-γ [1]; drug 1 μM, 24 h): 24.4 pg/mL
IFN-γ/cell viability (IFN-γ [1]; drug 5 μM, 6 h): 36.0 pg/mL
IFN-γ/cell viability (IFN-γ [1]; drug 5 μM, 24 h): 14.4 pg/mL
IFN-γ/cell viability (IFN-γ [1]; drug 10 μM, 6 h): 30.1 pg/mL
IFN-γ/cell viability (IFN-γ [1]; drug 10 μM, 24 h): 16.3 pg/mL
inhibition at 1 µM (IFN-γ [2]; 24 hr): 46.5%
inhibition at 1 µM (IFN-γ [2]; 48 hr): 18.7%
inhibition at 5 µM (IFN-γ [2]; 24 hr): 45.3%
inhibition at 5 µM (IFN-γ [2]; 48 hr): 1%
effect on cytokine induction, in words (IFN-γ [2]): significantly attenuated cytokine induction in Jurkat cells
effect on cytokine induction, in words (IFN-γ [2]; listed as Thioridazine): able to reduce cytokine production
IFN-γ/cell viability (IFN-γ [2]; group 3, THZ 1 μM co-treated with PI, 24 hr): 34.9 ± 0.5 pg/mL
IFN-γ/cell viability (IFN-γ [2]; [18]): 32.6 ± 0.6 pg/mL
IFN-γ/cell viability (IFN-γ [2]; [19]): 35.7 ± 0.2 pg/mL
IFN-γ/cell viability (IFN-γ [2]; [20]): 39.7 ± 0.6 pg/mL
effect on cell viability, in words (Jurkat cells; co-treatment with PMA + ionomycin): does not affect cell viability
Cell Viability (%) (Jurkat cells; [18]): 71 ± 4%
Cell Viability (%) (Jurkat cells; group 3, THZ 1 μM co-treated with PMA 0.01 μg/mL + ionomycin 1 μM, 24 hr): 81 ± 4%
Cell Viability (%) (Jurkat cells; [19]): 74 ± 6%
Cell Viability (%) (Jurkat cells; [20]): 65 ± 4%
Cell Viability (%) (THP-1 cells; [10]): 88 ± 7%
Cell Viability (%) (THP-1 cells; [11]): 103 ± 1%
Cell Viability (%) (THP-1 cells; [12]): 79 ± 5%
Cell Viability (%) (THP-1 cells; [13]): 101 ± 8%
Cell Viability (%) (THP-1 cells; [14]): 68 ± 4%
Cell Viability (%) (THP-1 cells; [15]): 87 ± 5%
IL-6 content in the cells reduced (IL6; 1 μM, after 6 hours, vs LPS alone): 20.7%
IL-6 content in the cells reduced (IL6; 1 μM, after 24 hours): 39.5%
IL-6 content in the cells reduced (IL6; 5 μM, after 6 hours): 37.1%
IL-6 content in the cells reduced (IL6; 5 μM, after 24 hours): 51.8%
IL-6 content in the cells reduced (IL6; 10 μM, after 6 hours): 45.9%
IL-6 content in the cells reduced (IL6; 10 μM, after 24 hours): 65.2%
IL-6 content in the cells is reduced at least (IL6; "at hours after administering" (number not given)): at least 20.7%
effect on IL-6 content, in words (IL6; Table 2, 6 hr and 24 hr): stronger effects to cells compared to TFP
IL-6 content in the cells is reduced at least (IL6; [17]): at least 39.5%
IL6/cell viability (IL6; [16]): 52.9 pg/mL
IL6/cell viability (IL6; drug 1 μM, 24 h): 41.3 pg/mL
IL6/cell viability (IL6; drug 5 μM, 6 h): 41.9 pg/mL
IL6/cell viability (IL6; drug 5 μM, 24 h): 32.9 pg/mL
IL6/cell viability (IL6; drug 10 μM, 6 h): 36.1 pg/mL
IL6/cell viability (IL6; drug 10 μM, 24 h): 23.7 pg/mL
Cell Viability (%) (Jurkat T cells; [4]): 79 ± 5%
Cell Viability (%) (Jurkat T cells; [5]): 69 ± 6%
Cell Viability (%) (Jurkat T cells; [6]): 77 ± 2%
Cell Viability (%) (Jurkat T cells; [7]): 69 ± 4%
Cell Viability (%) (Jurkat T cells; [8]): 77 ± 2%
Cell Viability (%) (Jurkat T cells; [9]): 55 ± 3%
